Assay results: patent publication US20070275936A1, “Formulations and Treatment Methods” (priority 1998, published 2007)

How the values were obtained:
[1] = tested on: Circulating Hematologic Elements; assay: Human HIV clinical protocol: hematology; assay type: in vivo
Protocol: Otherwise untreated patients with CD4 counts of ≧200/μL and HIV-1 viral RNA between 5,000 and 1,000,000 copies/mL (branched-DNA, version 3.0, Bayer, Tarrytown, N.Y.) provided informed consent and were enrolled into a Phase I/II dose-escalation study of the safety and efficacy of intramuscular injections of BrEA. The protocol was conducted in South Africa. In the first cohort, four patients received an initial injection of 1 mL (50 mg), followed by a safety and pharmocokinetic study for seven days, and then received five daily injections of 1 mL (50 mg). The second cohort of 8 patients was randomized in a 1:2 ratio to receive either 50 mg (1 mL) or 100 mg (2 mL) on the same schedule. Patients were allowed at the discretion of the investigators to receive up to three additional courses each, repeated after 28 days of observation. The protocol was amended to introduce an improved formulation, and to extend the initial pharmacokinetic and safety period to 14 days, the observation period following the five daily doses to 35 days, and to allow up to 7 treatment courses. A third cohort of 24 patients was randomized in a 1:2:4 ratio to receive either 50 mg (0.5 mL), 100 mg (1 mL), or 200 mg (2 mL) of BrEA. The patients were all male, since initial safety studies are not permitted in females in South Africa. Within the group of 39 patients randomized, the ethnic demographic included was 18 Caucasian, 17 African, and 4 other. The average age was 34 (range 20-63), the average initial CD4/μL was 434 (range 176-1210), and the average viral load was 13,772 copies/mL (range 3,020-158,489). Patients underwent physical examinations and provided samples for chemistry, hematology, virology and immunology testing approximately every two weeks.
The CD4^+ cell frequency was determined using the FACSCount test. The absolute frequency of a CD8^+ cell subset was calculated in a similar fashion. The absolute white blood cell (WBC) count was determined using an automated cell counter (Advia 120, Bayer, Tarrytown, N.Y.). The nucleated cell region was defined using a forward versus orthogonal scatter plot. The absolute frequency per μL of CD3^− Natural Killer or Dendritic Cell subsets (F) was estimated by the equation: F=(proportion of nucleated cells)×(absolute WBC count per μL).
Statistical analysis of changes in surface phenotypes, hematological, and viral parameters were performed by calculating the area under the curve (AUC) of the percentage difference from baselines (phenotype), percentage difference from the mean of screen and baseline values (hematology), or log10 change from the mean of screen and baseline values (plasma viral RNA) for individual patients. AUC were calculated using the actual number of days between analysis visits for each patient. Because patients were on study for varying periods of time, this value was normalized to the time-averaged AUC by dividing by the number of days of observation. The Student's t-test was then used to analyze the difference from zero for the AUCs from all patients with data available for each parameter. A significant increase in the AUC for the entire 5-month period was interpreted as a nonrandom change in the given parameter.
For these reasons, the time-averaged AUC values for the 5-month period underestimate the magnitude of the individual responses. Maximal individual patient responses were calculated as the mean of the maximal percentage changes from baselines for individual patients at any analysis visit after dosing.
To investigate the kinetics of the responses for the entire population related to the time after dosing, the maximum analysis visit responses were calculated as the average of the maxima of the mean percentage changes from baselines for each analysis visit. Due to the altered BrEA administration interval for cohort 3, the analysis visits were aligned relative to the last dosing visit.

HIV-1 viral RNA = assay: Human HIV clinical protocol: viral load (bDNA); assay type: in vivo; conditions: after three 5-day courses of intermittent dosing over 153 days
Protocol: Otherwise untreated patients with CD4 counts of ≧200/μL and HIV-1 viral RNA between 5,000 and 1,000,000 copies/mL (branched-DNA, version 3.0, Bayer, Tarrytown, N.Y.) provided informed consent and were enrolled into a Phase I/II dose-escalation study of the safety and efficacy of intramuscular injections of BrEA. The protocol was conducted in South Africa. In the first cohort, four patients received an initial injection of 1 mL (50 mg), followed by a safety and pharmocokinetic study for seven days, and then received five daily injections of 1 mL (50 mg). The second cohort of 8 patients was randomized in a 1:2 ratio to receive either 50 mg (1 mL) or 100 mg (2 mL) on the same schedule. […]
CD4 counts were assessed using a FACScount (BDIS), and viral loads were measured using the bDNA assay (Bayer). […]
Statistical analysis of changes in surface phenotypes, hematological, and viral parameters were performed by calculating the area under the curve (AUC) of the percentage difference from baselines (phenotype), percentage difference from the mean of screen and baseline values (hematology), or log10 change from the mean of screen and baseline values (plasma viral RNA) for individual patients. AUC were calculated using the actual number of days between analysis visits for each patient. […]

HCV = HCV level by PCR in HIV/HCV infected patient dosed I.V. with BrEA; assay type: in vivo; conditions: predosing 6.5
Protocol: A patient infected with HIV and HCV was dosed I.V. with BrEA for 3 consecutive days using a formulation that contained 20 mg/mL BrEA in 45% w/v hydroxypropyl-β-cyclodextrin and saline. Four mL of the formulation (80 mg BrEA) was administered to the patient every 4 hours during the 3 day treatment period. The patient's predosing HCV level was 6.5 Log10 as measured by PCR and the HCV level was 6.2 Log10 on the first day of dosing, 5.5 Log10 on the 3rd day of dosing and 4.9 Log10 three days after the last dose was administered. HIV RNA levels as measured by PCR was 5.2 Log10 (predosing), 5.8 Log10 (first day), 5.9 Log10 (third day) and 5.4 Log10 (day 6). The NK cell counts (cells/mm^3) were 28, 41 and 38 at predosing, day 0 and day 3.

[2] = Plasma pharmacokinetics of 14C BrEA in Rhesus Monkeys; assay type: in vivo; conditions: 1 mg/kg s.c. 14C BrEA
Protocol: A pharmacokinetic analysis of ^14C BrEA in plasma was conducted in two female Rhesus Monkeys. Trace labeled compound (16α-bromo-3-beta-hydroxy-5α-[4-^14C]-androstan-17-one [50 mCi/mmole]) was used at a dose of 1 mg/kg as a subcutaneous injection in the scapular region using an injection volume of 1 mL/kg. The BrEA was formulated in 25% polyethylene glycol 300, 12.5% absolute ethanol, 5% benzyl benzoate, and qs with propylene glycol. 40 μCi were injected per animal. Blood samples were taken at 0, 0.5, 1, 2, 4, 8, and 24 hours for determination of ^14C activity. The radioactivity in the plasma rose to near peak concentration in 8 hours and remained at approximately the same level through the end of the study at 24 hours.

Plasmodium berghei = assay: Lewis rat in vivo parasitemia study; conditions: Lewis rats

## C[C@]12CC[C@H](O)C[C@@H]1CC[C@@H]1[C@@H]2CC[C@]2(C)C(=O)[C@H](Br)C[C@@H]12 [BrEA, 16α-bromo-3β-hydroxy-5α-androstane-17-one]
[1]; analysis visit day 22
  Eosinophils: Maximum Analysis Visit Responses Mean: 129% (22)
[1]; analysis visit day 81
  WBC: Maximum Analysis Visit Responses Mean: 23% (81)
[1]; analysis visit day 126
  Basophils: Maximum Analysis Visit Responses Mean: 113% (126)
[1]; change from baseline, n=33
  Eosinophils: Maximum Individual Patient Responses Mean (range): 110% (−37 to 656%)
[1]; change from baseline, n=37
  Basophils: Maximum Individual Patient Responses Mean (range): 182% (−20 to 1,100%)
  Monocytes: Maximum Individual Patient Responses Mean (range): 60% (−14 to 189%)
  Neutrophils: Maximum Individual Patient Responses Mean (range): 67% (−25 to 297%)
  Platelets: Maximum Individual Patient Responses Mean (range): 31% (0 to 122%)
  WBC: Maximum Individual Patient Responses Mean (range): 36% (−1 to 159%)
[1]; i.m. BrEA, HIV patients, n=37, p=0.132
  WBC: Time-averaged AUC Increase Mean ± SEM: 4.4 ± 3%
[1]; n=33, p=0.086
  Eosinophils: Time-averaged AUC Increase Mean ± SEM: 20 ± 11%
[1]; n=37, p<0.001
  Platelets: Time-averaged AUC Increase Mean ± SEM: 7 ± 2%
[1]; n=37, p=0.001
  Basophils: Time-averaged AUC Increase Mean ± SEM: 42 ± 12%
[1]; n=37, p=0.009
  Neutrophils: Time-averaged AUC Increase Mean ± SEM: 11 ± 4%
[1]; n=37, p=0.029
  Monocytes: Time-averaged AUC Increase Mean ± SEM: 10 ± 5%
HIV-1 viral RNA
  change in viral load: no overall decrease in viral load
HCV; 3rd day of dosing
  HCV level by PCR: 5.5 Log10
HCV; first day of dosing, 80 mg I.V. every 4 hours for 3 days
  HCV level by PCR: 6.2 Log10
HCV; three days after the last dose
  HCV level by PCR: 4.9 Log10
[2]
  time for plasma radioactivity to rise to near peak concentration: 8 h
Plasmodium berghei; Day 4, high dose 60 mg/kg i.v. days 0-3, saline control 16%
  % RBC parasitemia: 7%
Plasmodium berghei; Day 4, low dose 30 mg/kg i.v. days 0-3, saline control 16%
  % RBC parasitemia: 9%
Plasmodium berghei; Day 11, high dose 60 mg/kg i.v. days 0-3, saline control 36%
  % RBC parasitemia: 11%
Plasmodium berghei; Day 11, low dose 30 mg/kg i.v. days 0-3, saline control 36%
  % RBC parasitemia: 12%
